{"source": "ChEMBL document CHEMBL5528053", "about": "“Discovery of Novel Isoquinoline Analogues as Dual Tubulin Polymerization/V-ATPase Inhibitors with Immunogenic Cell Death Induction” (J Med Chem, 2024)", "key": {"A549 [1]": {"tested_on": "A549", "assay": "Antiproliferative activity against human A549 cells assessed as inhibition of cell growth after 72 hrs by MTT assay", "type": "functional, cell-based", "conditions": "A549, 72 h"}, "DU-145": {"tested_on": "DU-145", "assay": "Antiproliferative activity against human DU-145 cells assessed as inhibition of cell growth after 72 hrs by MTT assay", "type": "functional, cell-based", "conditions": "DU-145, 72 h"}, "PC-3 [2]": {"tested_on": "PC-3", "assay": "Antiproliferative activity against human PC-3 cells assessed as inhibition of cell growth after 72 hrs by MTT assay", "type": "functional, cell-based", "conditions": "PC-3, 72 h"}, "MDA-MB-231": {"tested_on": "MDA-MB-231", "assay": "Antiproliferative activity against human MDA-MB-231 cells assessed as inhibition of cell growth after 72 hrs by MTT assay", "type": "functional, cell-based", "conditions": "MDA-MB-231, 72 h"}, "[3]": {"target": "Tubulin beta (Homo sapiens) (UniProt P68371+Q9H4B7+Q13509+P04350+Q3ZCM7+P07437+Q13885+Q9BVA1+Q9BUF5+A6NNZ2)", "assay": "Binding affinity to beta-tubulin colchicine binding site in human PC-3 cells assessed as inhibition of EBI-beta-tubulin adduct band formation preincubated for 2 hrs followed by EBI addition measured after 1.5 hrs by EBI competition based Western blotting analysis", "type": "cell-based", "conditions": "dose 1-100 µM, time 3.5 hrs"}, "PC-3 [4]": {"tested_on": "PC-3", "assay": "Downregulation of acetyl-alpha tubulin expression in human PC-3 cells incubated for 24 hrs by Western blot analysis", "type": "functional, cell-based", "conditions": "dose 50-200 nM"}, "PC-3 [5]": {"tested_on": "PC-3", "assay": "Induction of cell cycle arrest in human PC-3 cells assessed as accumulation of cells at G1 phase at 50 nM incubated for 24 hrs by flow cytometry analysis (reference value: 49.4%)", "type": "functional"}, "PC-3 [6]": {"tested_on": "PC-3", "assay": "Induction of cell cycle arrest in human PC-3 cells assessed as accumulation of cells at G1 phase at 100 nM incubated for 24 hrs by flow cytometry analysis (reference value: 49.4%)", "type": "functional"}, "PC-3 [7]": {"tested_on": "PC-3", "assay": "Induction of cell cycle arrest in human PC-3 cells assessed as accumulation of cells at G1 phase at 200 nM incubated for 24 hrs by flow cytometry analysis (reference value: 49.4%)", "type": "functional"}, "PC-3 [8]": {"tested_on": "PC-3", "assay": "Induction of cell cycle arrest in human PC-3 cells assessed as accumulation of cells at S phase at 50 nM incubated for 24 hrs by flow cytometry analysis (reference value: 31.3%)", "type": "functional"}, "PC-3 [9]": {"tested_on": "PC-3", "assay": "Induction of cell cycle arrest in human PC-3 cells assessed as accumulation of cells at S phase at 100 nM incubated for 24 hrs by flow cytometry analysis (reference value: 31.3%)", "type": "functional"}, "PC-3 [10]": {"tested_on": "PC-3", "assay": "Induction of cell cycle arrest in human PC-3 cells assessed as accumulation of cells at G2/M phase at 50 nM incubated for 24 hrs by flow cytometry analysis (reference value: 19.5%)", "type": "functional"}, "PC-3 [11]": {"tested_on": "PC-3", "assay": "Induction of cell cycle arrest in human PC-3 cells assessed as accumulation of cells at G2/M phase at 200 nM incubated for 24 hrs by flow cytometry analysis (reference value: 19.5%)", "type": "functional"}, "PC-3 [12]": {"tested_on": "PC-3", "assay": "Induction of cell cycle arrest in human PC-3 cells assessed as increase in histone H3at Ser10 residues at 50 to 200 nM incubated for 24 hrs by DAPI staining based analysis", "type": "functional", "conditions": "dose 50-200 nM"}, "PC-3 [13]": {"tested_on": "PC-3", "assay": "Induction of cell cycle arrest in human PC-3 cells assessed as reduction in cdc25c phosphorylation at ser216 residue at 50 to 200 nM incubated for 24 hrs by DAPI staining based analysis", "type": "functional", "conditions": "dose 50-200 nM"}, "PC-3 [14]": {"tested_on": "PC-3", "assay": "Induction of apoptosis in human PC-3 cells assessed as viable cells at 50 nM measured after 24 hrs by annexin V-FITC and PI staining based flow cytometry analysis (reference value: 90.6%)", "type": "functional", "conditions": "read-out: Activity"}, "PC-3 [15]": {"tested_on": "PC-3", "assay": "Induction of apoptosis in human PC-3 cells assessed as viable cells at 200 nM measured after 24 hrs by annexin V-FITC and PI staining based flow cytometry analysis (reference value: 90.6%)", "type": "functional", "conditions": "read-out: Activity"}, "PC-3 [16]": {"tested_on": "PC-3", "assay": "Induction of apoptosis in human PC-3 cells assessed as late apoptotic cells at 200 nM measured after 24 hrs by annexin V-FITC and PI staining based flow cytometry analysis (reference value: 2.37%)", "type": "functional"}, "PC-3 [17]": {"tested_on": "PC-3", "assay": "Induction of apoptosis in human PC-3 cells assessed as necrotic cells at 100 nM measured after 24 hrs by annexin V-FITC and PI staining based flow cytometry analysis (reference value: 6.01%)", "type": "functional"}, "PC-3 [18]": {"tested_on": "PC-3", "assay": "Induction of apoptosis in human PC-3 cells assessed as downregulation of bcl-2 level at 50 to 200 nM incubated for 24 hrs by Western blot analysis", "type": "functional, cell-based", "conditions": "dose 50-200 nM"}, "PC-3 [19]": {"tested_on": "PC-3", "assay": "Induction of apoptosis in human PC-3 cells assessed as increase in Cl-PARP level at 50 to 200 nM incubated for 24 hrs by Western blot analysis", "type": "functional, cell-based", "conditions": "dose 50-200 nM"}, "A549 [20]": {"tested_on": "A549", "assay": "Inhibition of cell migration in human A549 cells at upto 100 nM incubated for 24 hrs by inverted fluorescence microscope analysis", "type": "functional, cell-based"}, "[21]": {"assay": "Toxicity in ICR mouse assessed as effect on CK level at 10 mg/kg, ip measured for 14 days", "type": "organism-based", "conditions": "in vivo, 336 h, time 14 day"}, "[22]": {"assay": "Toxicity in ICR mouse assessed as effect on WBC count at 10 mg/kg, ip measured for 14 days", "type": "organism-based", "conditions": "in vivo, 336 h, time 14 day"}, "[23]": {"assay": "Toxicity in ICR mouse assessed as effect on kidney at 10 mg/kg, ip measured for 14 days by H and E staining based analysis", "type": "organism-based", "conditions": "in vivo, 336 h, time 14 day"}, "PC-3 [24]": {"tested_on": "PC-3", "assay": "Induction of endoplasmic reticulum (ER) stress in human PC-3 cells assessed as upregulation of eIF2 alpha phosphorylation at […] residues at 50 to 200 nM measured after 24 hrs by Western blot analysis", "type": "functional, cell-based", "conditions": "dose 50-200 nM"}, "PC-3 [25]": {"tested_on": "PC-3", "assay": "Inhibition of autophagy in human PC-3 cells assessed as increase in number of autophagosomes at 50 to 200 uM measured after 3 hrs by immunofluorescence imaging based analysis", "type": "functional, cell-based", "conditions": "dose 50-200 µM"}, "PC-3 [26]": {"tested_on": "PC-3", "assay": "Induction of immunogenic cell death in human PC-3 cells assessed as increase in CRT translocation to cell surface at 50 to 200 nM measured after 12 hrs by DAPI staining based analysis", "type": "functional", "conditions": "dose 50-200 nM"}, "PC-3 [27]": {"tested_on": "PC-3", "assay": "Induction of immunogenic cell death in human PC-3 cells assessed as increase in HMGB1 release from nuclei at 50 to 200 nM measured after 24 hrs by DAPI staining based analysis", "type": "functional", "conditions": "dose 50-200 nM"}, "[28]": {"assay": "Antitumor immunity against mouse RM1 cells homografted in C57BL/6 mouse model assessed as increase in tumor infiltrating lymphocytes at 5 mg/kg, iv administered every two days for 14 days by flow cytometry analysis (reference value: 5.26%)", "type": "functional", "conditions": "time 14 day"}, "[29]": {"assay": "Antitumor immunity against mouse RM1 cells homografted in C57BL/6 mouse model assessed as increase in tumor infiltrating lymphocytes at 10 mg/kg, iv administered every two days for 14 days by flow cytometry analysis (reference value: 5.26%)", "type": "functional", "conditions": "time 14 day"}, "[30]": {"assay": "Antitumor immunity against mouse RM1 cells homografted in C57BL/6 mouse model assessed as increase in tumor infiltrating CD3+CD8+T cells (CTLs) at 10 mg/kg, iv administered every two days for 14 days by flow cytometry analysis (reference value: 0.89%)", "type": "functional", "conditions": "time 14 day"}, "RM1": {"tested_on": "RM1", "assay": "Antitumor immunity against mouse RM1 cells homografted in C57BL/6 mouse model assessed as increase in activation of tumor infiltrating lymphocytes in spleen at 5 to 10 mg/kg, iv administered every two days for 14 days by flow cytometry analysis", "type": "functional, organism-based", "conditions": "dose 5-10 mg/kg, time 14.0 day"}}, "note": "The source made the active and inactive calls. No cut-off for these calls is given here."}
{"compound": "COc1cc(-c2nc(C(N)=O)cc3cc4c(cc23)OCCO4)cc(Br)c1OC", "values": [{"measurement": "IC50", "setting": "A549 [1]", "result": 90, "unit": "nM"}, {"measurement": "IC50", "setting": "DU-145", "result": 110, "unit": "nM"}, {"measurement": "IC50", "setting": "PC-3 [2]", "result": 60, "unit": "nM"}, {"measurement": "IC50", "setting": "MDA-MB-231", "result": 130, "unit": "nM"}, {"measurement": "Activity", "setting": "[3]", "result": "Dose-Dependent Effect"}, {"measurement": "Activity", "setting": "PC-3 [4]", "result": "Dose-Dependent Effect"}, {"measurement": "Activity", "setting": "PC-3 [5]", "result": 39.8, "unit": "%"}, {"measurement": "Activity", "setting": "PC-3 [6]", "result": 34.1, "unit": "%"}, {"measurement": "Activity", "setting": "PC-3 [7]", "result": 17.9, "unit": "%"}, {"measurement": "Activity", "setting": "PC-3 [8]", "result": 29.3, "unit": "%"}, {"measurement": "Activity", "setting": "PC-3 [9]", "result": 22.3, "unit": "%"}, {"measurement": "Activity", "setting": "PC-3 [10]", "result": 30.9, "unit": "%"}, {"measurement": "Activity", "setting": "PC-3 [11]", "result": 65.8, "unit": "%"}, {"measurement": "Activity", "setting": "PC-3 [12]", "result": "Active"}, {"measurement": "Activity", "setting": "PC-3 [13]", "result": "Active"}, {"measurement": "viability at 0.05 µM", "setting": "PC-3 [14]", "result": 87.6, "unit": "%"}, {"measurement": "viability at 0.2 µM", "setting": "PC-3 [15]", "result": 50.9, "unit": "%"}, {"measurement": "Activity", "setting": "PC-3 [16]", "result": 19.4, "unit": "%"}, {"measurement": "Activity", "setting": "PC-3 [17]", "result": 6.41, "unit": "%"}, {"measurement": "Activity", "setting": "PC-3 [18]", "result": "Active"}, {"measurement": "Activity", "setting": "PC-3 [19]", "result": "Active"}, {"measurement": "inhibition", "setting": "A549 [20]", "result": "Active"}, {"measurement": "Activity", "setting": "[21]", "result": "Non-Toxic"}, {"measurement": "Activity", "setting": "[22]", "result": "Non-Toxic"}, {"measurement": "Activity", "setting": "[23]", "result": "Non-Toxic"}, {"measurement": "Activity", "setting": "PC-3 [24]", "result": "Active"}, {"measurement": "inhibition", "setting": "PC-3 [25]", "result": "Active"}, {"measurement": "Activity", "setting": "PC-3 [26]", "result": "Active"}, {"measurement": "Activity", "setting": "PC-3 [27]", "result": "Active"}, {"measurement": "Activity", "setting": "[28]", "result": 7.01, "unit": "%"}, {"measurement": "Activity", "setting": "[29]", "result": 8.03, "unit": "%"}, {"measurement": "Activity", "setting": "[30]", "result": 2.27, "unit": "%"}, {"measurement": "Activity", "setting": "RM1", "result": "Active"}]}
